Experimental data: ChEMBL document CHEMBL5463729, “Data for DCP probe BAY 1753011” (2023)

Columns and labels:
Settings in all cases: Compound concentration 10.0 uM
[1] = target: Tyrosine-protein kinase Lck (Homo sapiens) (UniProt P06239); assay: Inhibition of Lck(h) at 10.0 µM in the Eurofins Kinase panel
[2] = target: D(1A) dopamine receptor (Homo sapiens) (UniProt P21728)
[3] = target: Acetylcholinesterase (Homo sapiens) (UniProt P22303)
Acetylcholinesterase (Homo sapiens), sequence (P22303 whole entry): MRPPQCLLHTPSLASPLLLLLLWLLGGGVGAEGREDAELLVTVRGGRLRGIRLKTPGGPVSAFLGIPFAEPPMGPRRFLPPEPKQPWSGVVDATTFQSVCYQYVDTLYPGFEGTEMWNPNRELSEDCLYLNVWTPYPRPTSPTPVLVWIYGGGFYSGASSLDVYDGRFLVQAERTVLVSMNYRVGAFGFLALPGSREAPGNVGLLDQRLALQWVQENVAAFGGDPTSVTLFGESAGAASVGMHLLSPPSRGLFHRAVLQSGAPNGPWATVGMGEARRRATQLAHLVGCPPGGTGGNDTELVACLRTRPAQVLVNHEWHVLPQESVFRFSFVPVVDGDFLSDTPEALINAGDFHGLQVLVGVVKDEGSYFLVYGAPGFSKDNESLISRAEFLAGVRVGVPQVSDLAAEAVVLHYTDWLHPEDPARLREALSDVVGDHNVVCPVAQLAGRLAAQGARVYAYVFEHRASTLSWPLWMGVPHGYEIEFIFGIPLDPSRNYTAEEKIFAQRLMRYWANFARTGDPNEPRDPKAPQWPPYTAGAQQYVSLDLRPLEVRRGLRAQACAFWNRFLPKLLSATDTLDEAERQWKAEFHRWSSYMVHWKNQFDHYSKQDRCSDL

D(1A) dopamine receptor (Homo sapiens), sequence (P21728 whole entry): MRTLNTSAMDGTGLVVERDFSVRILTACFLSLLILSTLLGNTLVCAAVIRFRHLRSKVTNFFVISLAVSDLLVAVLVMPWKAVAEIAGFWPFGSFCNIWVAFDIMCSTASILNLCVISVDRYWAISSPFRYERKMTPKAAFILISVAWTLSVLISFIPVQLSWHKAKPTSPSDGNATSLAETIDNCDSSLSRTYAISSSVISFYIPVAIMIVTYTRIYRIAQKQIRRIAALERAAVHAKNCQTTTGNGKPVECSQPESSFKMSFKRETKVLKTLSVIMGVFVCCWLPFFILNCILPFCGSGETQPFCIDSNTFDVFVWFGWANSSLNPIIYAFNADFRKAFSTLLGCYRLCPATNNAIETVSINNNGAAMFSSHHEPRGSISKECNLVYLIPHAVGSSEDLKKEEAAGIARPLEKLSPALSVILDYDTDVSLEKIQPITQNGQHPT
Tyrosine-protein kinase Lck (Homo sapiens), sequence (P06239 2-509 limits assumed): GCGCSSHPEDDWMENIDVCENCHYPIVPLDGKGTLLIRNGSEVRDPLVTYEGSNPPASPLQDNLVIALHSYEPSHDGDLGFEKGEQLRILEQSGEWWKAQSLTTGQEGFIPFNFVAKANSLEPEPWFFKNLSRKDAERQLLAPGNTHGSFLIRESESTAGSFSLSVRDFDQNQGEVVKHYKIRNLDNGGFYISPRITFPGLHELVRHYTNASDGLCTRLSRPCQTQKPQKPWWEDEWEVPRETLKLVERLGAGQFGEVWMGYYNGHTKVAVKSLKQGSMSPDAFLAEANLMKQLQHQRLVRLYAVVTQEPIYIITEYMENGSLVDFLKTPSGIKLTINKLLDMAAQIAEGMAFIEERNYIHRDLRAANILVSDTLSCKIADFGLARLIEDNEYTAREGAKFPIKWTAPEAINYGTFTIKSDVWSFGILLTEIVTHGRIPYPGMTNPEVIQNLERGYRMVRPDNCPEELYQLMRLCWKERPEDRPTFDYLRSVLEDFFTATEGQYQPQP

Compound `O=c1n(Cc2cncn2-c2cccc(Cl)c2)nc(-c2ccc(Cl)cc2)n1C[C@H](O)C(F)(F)F` has an inhibition [1] of -7.91%.
With `C[C@H](O)c1nc(Cn2nc(-c3ccc(Cl)cc3)n(C[C@H](O)C(F)(F)F)c2=O)nn1-c1cccc(Cl)c1` [PECAVAPTAN] the inhibition [2] was -6.55% and the inhibition [3] was 2%.
